Reference: US10233143B2, “Pseudoceramide compound, and external use skin preparation composition containing same” (AE KYUNG INDUSTRIAL CO., LTD, priority 2014, dated 2019)

Columns and labels:
[1] = Strengthening internal hair tissues: hair breakage after 10,000 brushings (Experimental Example 3); details: for Numbers of broken hairs: hair essence with 0.2 wt % of the substance applied once, among 4,000 strands after 10,000 brushings, untreated 89; for Hair breakage improvement rate: hair essence with 0.2 wt % of the substance, versus untreated hairs
Description: A formulation of hair essence including novel compounds comprising pseudoceramide prepared in Example 7, a formulation of hair essence including conventional pseudoceramide prepared in Comparative Example 5, a formulation of hair essence without pseudoceramide prepared in Comparative Example 6 were evaluated in view of internal hair tissue strengthening effect. The internal hair tissue strengthening effect was tested in the following manner.
After hairs damaged by permanent weaving, bleaching, shampooing, thermal stimulation, brushing and so on were prepared, ceramide administered essence was applied once to the damaged hairs. In order to evaluate strengths of internal tissues of the hair, after the hair was brushed 10,000 times, a hair breakage improvement rate was calculated using the number of broken strands of untreated hairs and the number of broken strands of treated hairs. The number of hairs used in the experiment was 4,000 in total for each sample.
The hair breakage improvement rate was calculated by the following equation: Breakage improvement rate (%)=(Number of broken strands of untreated hairs−Number of broken strands of treated hairs)/Number of broken strands of untreated hairs

[2] = test system: HaCaT human keratinocyte cells; test: Cytotoxicity assay (MTT); format: cell-based; details: one day incubation, absorbance 540 nm
Description: Extents of citotoxicity were measured using HaCaT human keratinocyte cells. The HaCaT human keratinocyte cells were maintained in Dulbecco's modified Eagle's medium (DMEM) supplemented with 10% fetal bovine serum (FBS)] and then seeded onto 96-well plates with a concentration of 6×10^3 cells to be cultured at 37° C. in a 5% CO2 atmosphere for one day. Then, the DMEM was replaced with a new one and samples were treated by a serial dilution method with various concentrations ranging from 2.5 mM and then incubated for one day. After one day, 10 μl MTT reagents were treated with a 5 mg/mL concentration in media and the HaCaT cells were then incubated at 37° C. in a 5% CO2 atmosphere for 4 hours. The media were removed and 150 μl DMSO reagent was added to each well to dissolve violet crystals. Absorbance at 540 nm was measured.
A reaction solution without a sample was used as a negative control group. A cell growth rate for each sample solution was calculated by the following equation (1) and the results are shown in FIG. 7: Cell growth rate (%)=A/B×100 (1)
B: Absorbance of negative control group

[3] = test system: Propionibacterium acnes (ATCC 6919); test: Minimum inhibitory concentration against Propionibacterium acnes (agar medium); format: cell-based; details: media treated with the sample
Description: To investigate anti-microvial activity of the pseudoceramide compound represented by Formula 3 according to the present invention against propionibacterium acnes, the minimum inhibitory concentration (MIC) of the pseudoceramide sample was measured in the following manner. The sample to be tested was added to reinforced clostridial agar medium (commercially available from Difco Co.) in an amount of 0.06 to 1.0%, followed by solidification of the medium. The suspension of pre-incubated Propionibacterium acnes ATCC 6919 was streaked on the surface of the medium and the medium was incubated for 3 days at 37° C. under anaerobic condition.

Row | SMILES | Numbers of broken hairs [1] | Hair breakage improvement rate [1] [%] | half maximum inhibitory concentration (IC50), cell growth rate [2] [ppm] | growth of strain in treated media (FIG. 8) [3]
1 | CCCCCCCC/C=C/CCCCCCCCNC(=O)CC(/C=C/CCCCCCCCCC)C(=O)O (stereo not drawn) [Formula 3] | 31 | 64 | 516.83 | no strain was expressed
2 | CCCCCCCCCCCCCCCCCC(=O)N[C@@H](CO)[C@H](O)[C@H](O)CCCCCCCCCCCCCC [ceramide 3, reference compound] | 63 | 27 | – | –
